Source: US20110245190A1, “METHOD FOR IMPROVING POST SURGERY VISUAL ACUITY OUTCOME WITH AZITHROMYCIN” (priority 2009, published 2011)

System: patients with contact lens-related dry eye disease (CLDE)
Assay: Study of azithromycin 1% ophthalmic solution vs rewetting drops over four weeks in contact lens-related dry eye disease (Example 2)
Assay type: in vivo, human
Source text: The objective of this study is to compare the efficacy of study drug, AZASITE® (azithromycin ophthalmic solution) 1%, versus rewetting drops (Visine for Contacts™) over a four week treatment period in patients with contact lens-related dry eye disease (CLDE).
Subjects are 18 years of age or older. Subjects have a positive diagnosis of CLDE based on their responses to the Contact Lens Dry Eye Questionnaire (CLDEQ, Nichols et al, Cornea 21:469-75 (2002)) and a score of ≧2, (i.e., moderate severity on a 0-4 scale, where 0=no ocular dryness and 4=very severe ocular dryness) on a self-reported assessment of ocular dryness at the screening Visit. A total of 50 subjects are enrolled in the study.
Subjects were asked to rate their level of ocular dryness on a 0-4 scale. Tear osmolarity was then assessed for each eye using the TearLab Osmolarity System®. Subjects were then instructed to remove their contact lenses and slit-lamp biomicroscopy and external eye exams were performed. Fluorescein corneal staining was then performed on each eye (5 μl of 2% fluorescein applied to the ocular surface) and graded according to National Eye Institute (NEI) criteria.
Eligible subjects were then randomized to receive either azithromycin 1% ophthalmic solution (AzaSite®), or rewetting drops (Visine for Contacts™) in a 1:1 ratio and they were not masked as to the treatment assignment. Subjects randomized to azithromcyin 1% were instructed to administer one drop to each eye BID for the first two days and then one drop QD for days 3-29. Subjects randomized to rewetting drops were instructed to administer one to two drops QID throughout the 29 day treatment period. The first dose of study medication was self-administered at the clinic once dosing instructions were provided. […]
Concomitant medication usage was recorded, an AE query performed, study medication and diary cards were collected. Subjects underwent habitual HCVA and LCVA assessment, completed the CLDEQ, and had tear osmolarity readings measured prior to removing their contact lenses. […]

CC[C@H]1OC(=O)[C@H](C)[C@@H](O[C@H]2C[C@@](C)(OC)[C@@H](O)[C@H](C)O2)[C@H](C)[C@@H](O[C@@H]2O[C@H](C)C[C@H](N(C)C)[C@H]2O)[C@](C)(O)C[C@@H](C)CN(C)[C@H](C)[C@@H](O)[C@]1(C)O [azithromycin]
mean ocular dryness scores, AM assessment (FIG. 2, prior to instilling study medication): lower
mean ocular dryness scores, PM assessment (FIG. 3, prior to lens removal): lower
mean daily duration of comfortable contact lens wear time (each of the weekly endpoints (Weeks 1-4), FIG. 1): longer
